Test results reported in article PMC5438364, “A broad-spectrum bactericidal lipopeptide with anti-biofilm properties” (Scientific Reports, 2017).
Converted amounts (≈) assume the structure as drawn. Where a SMILES comes first, the peptide text is derived from it. [ ]: non-standard residue; d: D form. The star is where a group is joined. Myristoyl = CCCCCCCCCCCCCC(=O)*; 12Ado = NCCCCCCCCCCCC(=O)O

Assays:
[1] = system: Gram-positive bacteria (GPB); settings: 48 h
Fusobacterium = type: cell-based, Fusobacterium nucleatum; settings: 48 h
Source text: (§1) Gram-negative bacteria tested were: ATCC strains Escherichia coli 25922, 43894, Pseudomonas aeruginosa 27853, 9027, Acinetobacter baumannii 19606, A. caloaceticus 31299, Salmonella Typhimurium 14028, Fusobacterium nucleatum 23726, Porphyromonas gingivalis 53977, clinical isolates E. coli 14182, 14384, U-16327, U-16329, P. aeruginosa 1278, Klebsiella pneumoniae 1287, K2–224, C2, A. baumannii 1279, 1280, 1281, F. nucleatum PK 1594, the engineered E. coli ML-35p and the isogenic K-12 pair AG100, AG100a (ΔacrAB). Dental related bacteria (generous gift of Prof. Doron Steinberg and Gilad Bachrach from the Hebrew University of Jerusalem) appear in bold characters.
(§2) Staphylococci, Bacilli, Escherichia, Pseudomonas, Acinetobacter, Salmonella and Klebsiella species were grown in Luria Bertani broth (LB; 5 gr/l NaCl, 5 gr/l yeast extract, 10 gr/l tryptone). Enterococci and E. coli ML-35p were grown in Tryptic Soy Broth (TSB). Listeria and Streptococci were grown in Brain Heart Infusion (BHI). All bacteria were grown over-night at 37 °C with shaking. S. mutans 35668 plated on BHI agar for enumeration was grown for 48 hr. […]
(§3) Minimal inhibitory concentration (MIC) was determined using the microdilution assay. […] O.D. at 620 nm was measured (Synergy HT, BioTek Instruments, Winooski, VT, USA), and the MIC was determined as the lowest concentration for which no increase in O.D. was detected.

E. coli ML-35p = assay: Outer and cytoplasmic membrane permeabilization (nitrocefin, ONPG, EtBr); type: cell-based, Escherichia coli; settings: ONPG and ethidium bromide (CM), 30 min, 37 °C
Description: Cytoplasmic membrane permeation to ethidium bromide (EtBr) was evaluated as follows: Mid-log-phase bacteria at 1 × 10^8 CFU/ml were centrifuged for 5 min at 15,000 g. Pellet was washed twice with PBS containing 0.5% glucose (pH = 7.4), suspended in the same buffer and incubated for 10 min at 37 °C with shaking. 180 µl of the bacterial suspension were mixed in a 96-well plate with 25 µl of the tested compound and EtBr (EtBr final concentration = 1 µg/ml) and fluorescence was recorded immediately (excitation: 535 nm, emission: 590 nm) for up to 30 min at 37 °C with shaking (Synergy HT, BioTek Instruments, Winooski, VT, USA).
Outer and cytoplasmic membrane permeation in Gram-negative bacteria was assessed using the engineered E. coli ML-35p by monitoring the chromogenic hydrolysis of two indicators: ortho-nitrophenyl-β-galactoside (ONPG) and nitrocefin. Mid-log-phase E. coli ML-35p were centrifuged for 5 min at 15,000 g and the supernatant was removed. Pellet was washed three times with sodium phosphate buffer (SPB; 10 mM NaH2PO4, pH = 7) and suspended in the same buffer (O.D. at 620 nm = 1). Bacteria were then 10-fold diluted into SPB containing 3% TSB. […] Hydrolysis of ONPG and nitrocefin was monitored immediately by recording the absorbance at 420 nm and 486 nm respectively, for 30 min at 37 °C with shaking (Synergy HT, BioTek Instruments, Winooski, VT, USA).

Porphyromonas = type: cell-based, Porphyromonas gingivalis; settings: 48 h
Source text: as §1, §2, §3

[2] = Self-assembly in solution by light scattering; type: physicochemical; settings: for critical aggregation concentration: light scattering at 90°, 400 nm
Description: To assess the OAK’s self-assembly in solution, serial two-fold dilutions of the OAK (initial concentration of 200 µM) were prepared in phosphate buffered saline (PBS; 10 mM Na2HPO4, 154 mM NaCl, pH = 7.4) and incubated for 2 hr at room temperature (RT). Light scattering at a 90° angle was measured through a 1 nm slit while holding both excitation and emission at 400 nm (Spectrophotometer Fluorolog-3 FL3–22; Horiba Jobin Yvon, Edison, NJ, USA). To evaluate the disassembly of these aggregates upon bacterial exposure, an OAK solution (200 µM) was incubated (2 hr in PBS, at RT) after which, bacteria were added (10^5 CFU/ml) and the light scattering evolution of these suspensions was monitored as described above.

[3] = system: S. mutans ATCC 35668 biofilm; assay: Anti-biofilm activity on pre-formed biofilm; type: cell-based, Streptococcus mutans; settings: ≥0.5 mM, within one hour of exposure, inoculum 10^9 CFU/ml
Description: Anti-biofilm activity was evaluated against established biofilms in 96-well plates as follows. 200 µl of mid-log-phase S. mutans 35668 at 5 × 10^5 CFU/ml in BHI containing 2% sucrose were placed in each well, and plates were incubated for 24 hr at 37 °C without shaking. Unattached cells were removed by decanting the plates and biofilms were washed three times with milliQ water. Solutions of the tested compounds were placed on the biofilms for up to 3 hr at 37 °C without shaking. Plates were decanted in 0.5 hr intervals and biofilms were washed three times with milliQ water to remove any compound residues. Biofilms were scraped from the bottom of the wells, suspended in BHI and sonicated for 5 min in a sonication bath, subjected to serial 10-fold dilutions in saline and plated on BHI agar for enumeration.

E. coli AG100 = type: cell-based, Escherichia coli; settings: wild type AG100
Source text: as §1
(§4) Minimal inhibitory concentration (MIC) was determined using the microdilution assay. Mid-log-phase bacteria at 5 × 10^5 CFU/ml were incubated in a 96-well plate with serial two-fold dilutions of the tested compound for 18–24 hr at 37 °C (final volume of 200 µl). O.D. at 620 nm was measured (Synergy HT, BioTek Instruments, Winooski, VT, USA), and the MIC was determined as the lowest concentration for which no increase in O.D. was detected.

E. coli AG100A (ΔacrAB) = type: cell-based, Escherichia coli; settings: efflux deletion-mutant AG100A
Source text: as §1, §4

E. coli = type: cell-based, Escherichia coli; settings: 48 h
Description: (§5) Staphylococci, Bacilli, Escherichia, Pseudomonas, Acinetobacter, Salmonella and Klebsiella species were grown in Luria Bertani broth (LB; 5 gr/l NaCl, 5 gr/l yeast extract, 10 gr/l tryptone). Enterococci and E. coli ML-35p were grown in Tryptic Soy Broth (TSB). Listeria and Streptococci were grown in Brain Heart Infusion (BHI). All bacteria were grown over-night at 37 °C with shaking. S. mutans 35668 plated on BHI agar for enumeration was grown for 48 hr. S. mutans UA159 was grown in 5% CO2 enriched atmosphere. Fusobacterium and Porphyromonas were grown in Wilkins-Chalgren growth medium and an anaerobic atmosphere.
as §3

S. mutans = assay: microbe, parasite or virus in culture; type: cell-based, Streptococcus mutans
Description: as §5, §4

In the case of `CCCCCCCCCCCCCC(=O)N[C@@H](CCCCN)C(=O)N[C@@H](CCCCN)C(=O)NCCCCCCCCCCCC(=O)N[C@@H](CCCCN)C(N)=O` [C14KKc12K] (Myristoyl-KK[12Ado]K-NH2), the MIC50 [1] is reported as 3 µM (≈ 2.43 µg/mL), the MIC range (Fusobacterium) is reported as 6.25 µM and the “concentration (MIC value) at which both OM and CM were permeabilized” value (E. coli ML-35p) is reported as 3 µM. For the same compound, the MIC range (Porphyromonas) was 3.12 µM, the “disaggregation in presence of bacteria (light scattering)” value ([2]; OAK 200 µM in PBS, 2 hr RT, then 10^5 CFU/ml S. aureus or E. coli, compared with C12KKc12K) was “greater tendency to disaggregate in presence of bacteria” and the critical aggregation concentration ([2]; PBS pH 7.4, 2 hr at RT) was 23 ± 3 µM. The “concentration of sharp divergence of light scattering pattern (higher amplitudes)” value ([2]; PBS pH 7.4, 2 hr at RT, two-fold dilutions from 200 µM) was ~ 20 µM, the critical aggregation concentration ([2]; supernatant of centrifuged saliva) was 8 ± 1 µM and the “killing of the initial inoculum in preformed biofilm” value [3] was over 99%. For the same compound, the MIC (E. coli AG100) was 3 µM, the MIC (E. coli AG100A (ΔacrAB)) was 3 µM and the “MIC E.c.” value (E. coli) was 3.12 µM. The MIC (S. mutans) was 0.78 µM.
